Six compounds from publication PMC8041433 (Environmental Health Perspectives, 2021) can be followed below.

Values joined by “and” are separate entries in the source; they are usually repeats but may differ in a detail not shown here. Equal values may be shown once. Read-outs that look alike come from different tables or passages of the source.

Test [1] addresses AChE in neural stem cells (Homo sapiens, UniProt P22303). In words: cell-based.
The next test addresses AChE in SH-SY5Y cells (Homo sapiens, UniProt P22303). The test can be described thus: cell-based.
Test [2] has as its target T1, recombinant human AChE (Homo sapiens, UniProt P22303). The test can be described thus: biochemical.
Test [3] deals with AChE in SH-SY5Y spheroids (Homo sapiens, UniProt P22303). In words: cell-based. Particulars: potency (IC50).
Sequence of AChE in SH-SY5Y spheroids (P22303 32-614): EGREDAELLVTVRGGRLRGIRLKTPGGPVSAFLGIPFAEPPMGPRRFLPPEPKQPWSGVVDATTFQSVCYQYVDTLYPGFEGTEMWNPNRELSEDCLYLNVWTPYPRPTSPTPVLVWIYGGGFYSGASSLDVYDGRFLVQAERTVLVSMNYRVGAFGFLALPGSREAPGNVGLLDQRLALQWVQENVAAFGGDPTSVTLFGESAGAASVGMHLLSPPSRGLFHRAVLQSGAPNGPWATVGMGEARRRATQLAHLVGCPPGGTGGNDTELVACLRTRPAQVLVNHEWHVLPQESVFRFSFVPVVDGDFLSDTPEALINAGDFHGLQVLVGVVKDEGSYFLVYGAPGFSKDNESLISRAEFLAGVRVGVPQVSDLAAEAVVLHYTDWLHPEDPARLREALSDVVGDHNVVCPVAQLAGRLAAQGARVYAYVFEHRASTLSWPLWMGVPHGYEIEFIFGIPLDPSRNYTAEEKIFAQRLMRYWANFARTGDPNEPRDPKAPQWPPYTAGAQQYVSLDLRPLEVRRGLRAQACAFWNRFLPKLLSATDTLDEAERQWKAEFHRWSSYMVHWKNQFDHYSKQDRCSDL
Test [4] concerns the target T1, recombinant human AChE.
The target of test [5] is T1, recombinant human AChE. In words: biochemical. This is another data set of the same source.
Test [6] has as its target AChE in neural stem cell spheroids (Homo sapiens, UniProt P22303). In words: cell-based.
Test [7] deals with T1, recombinant human AChE. In words: biochemical. This is another data set of the same source.
Test [8] deals with T1, recombinant human AChE. In words: biochemical. The test is classed as biochemical. Particulars: for AC50: AC50 (uM).
Where [9] appears, read: potency (IC50), SH-SY5Y cells monolayer.
Where [10] appears, read: potency (IC50), Enzyme with microsomes.
Where [11] appears, read: potency (IC50), Neural stem cell spheroid (24 h).
[12] abbreviates: potency (IC50), Neural stem cell spheroid (48 h).
Throughout, for IR or R: key: Reversible (R); Irreversible (IR); ND, not detected in enzyme-based AChE inhibition assay from current study.

Sequence of AChE in neural stem cell spheroids (P22303 32-614): as above
Sequence of AChE in SH-SY5Y cells (P22303 32-614): as above
Sequence of AChE in neural stem cells (P22303 32-614): as above
T1 sequence (P22303 32-614): as above

Turning to `CCOP(=S)(OCC)O/N=C(\C#N)c1ccccc1` [Phoxim], the 50% inhibitory concentration (IC50) – broadly, the point on the concentration scale where inhibition reaches its midpoint – is 3.18 µM in [1]; 17.4 µM and 63.3 µM and 30.9 µM and 71 µM and 34.7 µM against AChE in SH-SY5Y cells (IC50 (uM)); 20.9 µM on AChE in SH-SY5Y cells (setting [9]); 22 ± 4.1 µM at recombinant human AChE [2]; 13.3 µM in test [3] (SH-SY5Y spheroids (24 h)); 12.9 µM in test [3] (SH-SY5Y spheroids (48 h)). The IC50 on recombinant human AChE [5] (setting [10]) is 0.67 µM; in test [6] (setting [11]) it was 0.33 µM; in test [6] (setting [12]), 0.4 µM; at recombinant human AChE [7] (potency (IC50), Enzyme), 23.4 µM. In addition, the “CC-v2 (curve classes)” value at AChE in SH-SY5Y cells is -2.1; at recombinant human AChE [4] it was -1.1; at recombinant human AChE [7], -2.2 and -2.1. For the same compound, the AC50 – broadly, the midpoint of the concentration-response curve, whichever way the signal moves – at recombinant human AChE [8] (activity_5) is 27.3 µM and 24.3 µM; at recombinant human AChE [8] (activity_10), 30.6 µM and 24.3 µM; on recombinant human AChE [8] (activity_60), 21.7 µM and 19.3 µM and 24.3 µM.
`CNC(=C[N+](=O)[O-])NCCSCc1csc(CN(C)C)n1` [Nizatidine, reference compound]: the IC50 in test [1] is 18.6 ± 1.21 µM; on AChE in SH-SY5Y cells (IC50 (uM)) it was 14.2 µM and 12.6 µM and 12.3 µM and 13.8 µM and 11.2 µM; against AChE in SH-SY5Y cells (setting [9]), 7.68 µM; at recombinant human AChE [2], 15.6 ± 3.57 µM; in test [3] (SH-SY5Y spheroids (24 h)), 7.05 ± 1.96 µM; in test [3] (SH-SY5Y spheroids (48 h)), 12.2 ± 1.41 µM. For the same compound, the half-maximal inhibitory concentration (IC50) is 20.1 ± 1.36 µM on recombinant human AChE [5] (setting [10]); 35.6 µM and 27.5 µM on recombinant human AChE [7] (IC50 (uM)); 10.5 ± 0.68 µM at recombinant human AChE [7] (potency (IC50), Enzyme). The “CC-v2 (curve classes)” value on AChE in SH-SY5Y cells was -1.1 and -2.1; on recombinant human AChE [4] it was 4; on recombinant human AChE [7], -2.1. Besides, in test [6], the “potency (IC50), Neural stem cell spheroid (24 h)” value was “Inactive”. Also, the “IR or R” value on recombinant human AChE [8] is given as “R”. Also, the concentration at half-maximal activity (AC50) was 24.3 µM and 27.3 µM and 6.85 µM on recombinant human AChE [8] (activity_5); 21.7 µM and 27.3 µM and 30.6 µM on recombinant human AChE [8] (activity_10); 27.3 µM and 19.3 µM and 24.3 µM at recombinant human AChE [8] (activity_60).
In the case of `CCCSP(=O)(OCC)Oc1ccc(Br)cc1Cl` (centres unmarked) [Profenofos], the IC50 is 1.05 ± 0.14 µM in [1]; 6.88 µM and 5.46 µM and 7.72 µM against AChE in SH-SY5Y cells (IC50 (uM)); 3.71 ± 0.24 µM on AChE in SH-SY5Y cells (setting [9]); 5.25 ± 0.34 µM at recombinant human AChE [2]; 2.57 ± 2.21 µM in [3] (SH-SY5Y spheroids (24 h)); 2.89 ± 0.65 µM in [3] (SH-SY5Y spheroids (48 h)). Further, the concentration for half-maximal inhibition (IC50) at recombinant human AChE [5] (IC50 (uM)) amounted to 2.74 µM; at recombinant human AChE [5] (setting [10]), 3.43 µM; in test [6] (setting [11]), 0.2 ± 0.09 µM; in test [6] (setting [12]) it was 0.78 µM; at recombinant human AChE [7] (IC50 (uM)), 3.87 µM; on recombinant human AChE [7] (potency (IC50), Enzyme), 3.85 µM. Further, the “CC-v2 (curve classes)” value at AChE in SH-SY5Y cells, on recombinant human AChE [4] and on recombinant human AChE [7] was -1.1 in each case. Also, the Efficacy on recombinant human AChE [4] was -79.632; on recombinant human AChE [7], -92.505. Further, the AC50 at recombinant human AChE [8] (activity_5) was 10.9 µM and 17.2 µM and 15.3 µM; on recombinant human AChE [8] (activity_10), 12.2 µM and 15.3 µM; on recombinant human AChE [8] (activity_60) it was 6.85 µM and 7.69 µM and 13.7 µM.
In the case of `COP(=S)(Oc1cc(Cl)c(Br)cc1Cl)c1ccccc1` (centres unmarked) [Leptophos], the IC50 is 58.1 µM in test [1]; 63.3 µM and 71 µM and 79.6 µM at AChE in SH-SY5Y cells (IC50 (uM)); 28 µM at AChE in SH-SY5Y cells (setting [9]); 48 ± 3.13 µM at recombinant human AChE [2]; 54.6 µM in [3] (SH-SY5Y spheroids (24 h)); 44.6 µM in [3] (SH-SY5Y spheroids (48 h)). For the same compound, the IC50 at recombinant human AChE [5] (setting [10]) came to 2.31 µM; in [6] (setting [11]), 36.5 µM; in [6] (setting [12]) it was 69 µM; on recombinant human AChE [7] (potency (IC50), Enzyme), 46.4 µM. Further, the “CC-v2 (curve classes)” value on AChE in SH-SY5Y cells is reported as -2.1; at recombinant human AChE [4], -1.1; at recombinant human AChE [7], -3. Further, the Efficacy on recombinant human AChE [4] is listed as -83.877; on recombinant human AChE [7], -64.129. Also, on recombinant human AChE [8], the AC50 is 31.4 µM and 62.7 µM (3×) and 39.5 µM and 35.2 µM and 55.9 µM.
Regarding `CCOP(=S)(OCC)Oc1nc(Cl)c(Cl)cc1Cl` [Chlorpyrifos, reference compound], the IC50 was 11.9 µM in test [1]; 35.6 µM and 35.7 µM and 44.9 µM and 63.5 µM against AChE in SH-SY5Y cells (IC50 (uM)); 41.1 µM at AChE in SH-SY5Y cells (setting [9]); 39.9 µM and 40 µM at AChE in SH-SY5Y cells (read-out: IC50); 95.7 ± 6.24 µM at recombinant human AChE [2]; 41.7 µM in test [3] (SH-SY5Y spheroids (24 h)). The IC50 is 36.7 µM in test [3] (SH-SY5Y spheroids (48 h)); 1.4 µM on recombinant human AChE [5] (setting [10]); 2.58 µM in test [6] (setting [12]); 1.21 µM in test [6] (read-out: potency (IC50), Neural stem cell spheroid (24 h)); 89.4 µM and 79.9 µM and 89.6 µM at recombinant human AChE [7] (IC50 (uM)); 48 µM at recombinant human AChE [7] (potency (IC50), Enzyme). For the same compound, the “CC-v2 (curve classes)” value is recorded as -2.1 on AChE in SH-SY5Y cells and -1.1 on recombinant human AChE [4]. Also, the AC50 on recombinant human AChE [8] was 28 µM and 44.4 µM and 62.7 µM and 49.8 µM and 55.9 µM.
Consider `CC/N=c1\cc2oc3cc(NCC)c(C)cc3c(-c3ccccc3C(=O)OCC)c-2cc1C` [Rhodamine 6G], for which the IC50 was 30.5 µM in test [1]; 8.94 µM and 6.31 µM and 7.1 µM and 7.07 µM and 7.96 µM and 8.91 µM against AChE in SH-SY5Y cells (IC50 (uM)); 12.4 µM at AChE in SH-SY5Y cells (setting [9]); 41.2 ± 2.79 µM on recombinant human AChE [2]; 15.8 µM in test [3] (SH-SY5Y spheroids (24 h)); 9.25 µM in [3] (SH-SY5Y spheroids (48 h)). The IC50 on recombinant human AChE [5] (setting [10]) worked out at 41.3 µM; in [6] (setting [11]), 29.7 µM; in test [6] (setting [12]), 40.3 µM; at recombinant human AChE [7] (potency (IC50), Enzyme) it was 22.8 µM. Besides, the “CC-v2 (curve classes)” value on AChE in SH-SY5Y cells is -1.1; on recombinant human AChE [4] it was -2.2 and -2.1; on recombinant human AChE [7], -1.1. Further, the “IR or R” value on recombinant human AChE [8] is listed as “R”. The AC50 on recombinant human AChE [8] (activity_5) was 39.5 µM and 35.2 µM and 28 µM; on recombinant human AChE [8] (activity_10), 39.5 µM and 49.8 µM and 35.2 µM; on recombinant human AChE [8] (activity_60) it was 25 µM and 35.2 µM.
